Results published in patent US6387909B1, “Thienopyranecarboxamide derivatives” (Recordati S.A. Chemical and Pharmaceutical Company, priority 1999, dated 2002).

Tests used:
[1] = molecular target: T1, recombinant α1b-adrenoceptor (Homo sapiens, UniProt P35368); assay: Radioligand binding ([3H]prazosin) to cloned α1b adrenoceptor; conditions: read-out: Affinity (Ki) α1b
T1 construct: expressed in transfected cells
T1 sequence (P35368 1-520): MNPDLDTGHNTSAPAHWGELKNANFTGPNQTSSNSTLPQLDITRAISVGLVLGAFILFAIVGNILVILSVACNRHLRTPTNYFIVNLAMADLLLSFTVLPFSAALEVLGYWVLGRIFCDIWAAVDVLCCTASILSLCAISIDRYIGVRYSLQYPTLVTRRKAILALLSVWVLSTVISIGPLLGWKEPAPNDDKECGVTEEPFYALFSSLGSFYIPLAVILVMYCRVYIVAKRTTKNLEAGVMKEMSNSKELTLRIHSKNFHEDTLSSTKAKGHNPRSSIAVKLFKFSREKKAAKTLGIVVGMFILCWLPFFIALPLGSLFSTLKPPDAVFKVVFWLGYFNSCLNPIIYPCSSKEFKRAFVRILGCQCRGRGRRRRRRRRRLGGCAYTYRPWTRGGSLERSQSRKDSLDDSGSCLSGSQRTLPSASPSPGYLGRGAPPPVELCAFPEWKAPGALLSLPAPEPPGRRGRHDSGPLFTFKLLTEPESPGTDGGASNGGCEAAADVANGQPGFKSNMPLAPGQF
Protocol: (§1) Determination of affinity for cloned subtypes of the α1-adrenoceptor was performed in membranes from cells transfected by electroporation with DNA expressing the genes encoding each α1-adrenoceptor subtype.
(§2) Non-specific binding was determined in the presence of 10 μM phentolamine. Incubation was stopped by addition of ice-cold Tris buffer and rapid filtration through Schleicher & Schuell GF52 filters that had been pretreated with 0.2%-polyethyleneimine.
(§3) Data were expressed as mean of Ki.

[2] = molecular target: T2, recombinant α1d-adrenoceptor (Homo sapiens, UniProt P25100); assay: Radioligand binding ([3H]prazosin) to cloned α1d adrenoceptor; conditions: read-out: Affinity (Ki) α1d
T2 construct: expressed in transfected cells
T2 sequence (P25100 1-572): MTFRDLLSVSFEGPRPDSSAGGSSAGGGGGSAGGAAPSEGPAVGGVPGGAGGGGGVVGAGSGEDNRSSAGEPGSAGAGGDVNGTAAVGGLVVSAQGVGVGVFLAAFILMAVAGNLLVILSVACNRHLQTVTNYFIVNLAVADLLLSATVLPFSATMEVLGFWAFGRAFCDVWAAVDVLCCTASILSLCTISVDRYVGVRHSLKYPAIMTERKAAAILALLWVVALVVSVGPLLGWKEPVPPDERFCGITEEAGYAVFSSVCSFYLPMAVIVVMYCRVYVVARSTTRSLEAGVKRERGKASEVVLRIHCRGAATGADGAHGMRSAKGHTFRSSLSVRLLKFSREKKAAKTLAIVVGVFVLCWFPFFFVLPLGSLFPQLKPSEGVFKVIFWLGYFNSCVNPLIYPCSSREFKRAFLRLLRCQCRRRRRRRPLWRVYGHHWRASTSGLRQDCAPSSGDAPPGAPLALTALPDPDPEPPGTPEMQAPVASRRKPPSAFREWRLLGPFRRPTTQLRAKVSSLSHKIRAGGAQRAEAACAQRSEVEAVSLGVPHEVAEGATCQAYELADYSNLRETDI
Protocol: as §1, §2, §3

[3] = tested on: prostatic urethral contractions induced by noradrenaline; assay: Urethral contractions induced by noradrenaline injection in anaesthetized dogs after intravenous administration; type: in vivo; conditions: dog, i.v.
Protocol: (§4) The experiments were performed according to the method of Imagawa et al. (J. Pharmacol. Methods, 22:103-111, 1989), with substantial modifications, as follows: adult male beagle dogs, weighing 8-10 kg, were anaesthetized with pentobarbital sodium (30 mg/kg i.v. and 2 mg/kg/h i.v.), intubated and spontaneously ventilated with room air. In order to monitor systemic blood pressure (BP), a polyethylene (PE) catheter was introduced into the aortic arch through the left femoral artery. A collateral of the left femoral vein was cannulated for infusion of anaesthetic, and the right femoral vein was cannulated for administration of compounds. For intraarterial (i.a.) injection of noradrenaline (NA), a PE catheter was introduced into the lower portion of the abdominal aorta via the right external iliac artery. Through such procedure, NA was selectively distributed to the lower urinary tract. A paramedian vertical suprapubic incision extending from the base of the pelvis to the mid-abdominal region was made and the bladder and the prostate were exposed. The bladder was manually emptied with a syringe. Prostatic urethral pressure was monitored with a Mikro-tip catheter (5F) introduced into the bladder via the external urethral meatus, and withdrawn until the pressure transducer was positioned in the prostatic region of the urethra. A ligature was secured between the neck of the bladder and urethra to isolate the response of the latter and to avoid any interaction with the bladder. Another ligature was put around the Mikro-tip catheter at the external meatus, to secure the catheter itself.
(§5) After a stabilizing period following the surgical procedure (30 minutes), in which arterial and prostatic urethral pressures were continuously monitored as basal values, i.a. administration of NA was made at intervals of 20 minutes.
(§6) The NA doses were chosen to produce an increase of at least 100% in urethral pressure. The test compounds were administered intravenously in a cumulative manner with intervals of 15-20 minutes between administrations. […]

[4] = tested on: diastolic blood pressure; assay: Blood pressure in anaesthetized dogs after intravenous administration; type: in vivo; conditions: dog, i.v.
Protocol: as §4, §5, §6

Row | Ki [1] [nM] | Ki [2] [nM] | Compound | UC ID50 NA (dose inhibiting by 50% the urethral contractions induced by noradrenaline) [3] [mg/kg] | DBP ED25 (dose inducing a 25% decrease in diastolic blood pressure) [4] [mg/kg]
1 | 4.34 | 1.01 | O=C(NCCCN1CCN(c2ccccc2OCC(F)(F)F)CC1)c1csc2c(=O)cc(-c3ccccc3)oc12 [Example 5, 7-Oxo-5-phenyl-N-{3-[4-[2-(2,2,2-trifluoroethoxy)phenyl]-1-piperazinyl]propyl}-7H-thieno[3,2-b]pyran-3-carboxamide] | 0.0027 | >1
2 | 7.52 | 2.46 | COc1ccccc1N1CCN(CCCNC(=O)c2csc3c(=O)cc(-c4ccccc4)oc23)CC1 [Example 2, N-{3-[4-(2-Methoxyphenyl)-1-piperazinyl]propyl}-7-oxo-5-phenyl-7H-thieno[3,2-b]pyran-3-carboxamide] | 0.0018 | 0.0355
